Test results published in patent publication US20240059671A1, “TYROSINE KINASE 2 (TYK2) DEGRADATION COMPOUNDS AND METHODS OF USE” (CULLGEN (SHANGHAI), INC., priority 2020, published 2024).

Target: TYK2 (Homo sapiens, UniProt P29597)
Test: TYK2 protein degradation in MOLT-4 cells by immunoblotting
Assay type: cell-based
Parameters: endogenous in cells; host or cells: MOLT-4
Conditions: MOLT-4 cells, 24 hours
Outline: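 MOLT-4 cells were exposed to compounds at 0.5 and 5 μM for 24 h, then lysed in RIPA buffer with protease and phosphatase inhibitors. TYK2 was detected by SDS-PAGE immunoblot with chemiluminescence, and band densitometry gave percent degradation.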

TYK2, sequence (P29597 whole entry): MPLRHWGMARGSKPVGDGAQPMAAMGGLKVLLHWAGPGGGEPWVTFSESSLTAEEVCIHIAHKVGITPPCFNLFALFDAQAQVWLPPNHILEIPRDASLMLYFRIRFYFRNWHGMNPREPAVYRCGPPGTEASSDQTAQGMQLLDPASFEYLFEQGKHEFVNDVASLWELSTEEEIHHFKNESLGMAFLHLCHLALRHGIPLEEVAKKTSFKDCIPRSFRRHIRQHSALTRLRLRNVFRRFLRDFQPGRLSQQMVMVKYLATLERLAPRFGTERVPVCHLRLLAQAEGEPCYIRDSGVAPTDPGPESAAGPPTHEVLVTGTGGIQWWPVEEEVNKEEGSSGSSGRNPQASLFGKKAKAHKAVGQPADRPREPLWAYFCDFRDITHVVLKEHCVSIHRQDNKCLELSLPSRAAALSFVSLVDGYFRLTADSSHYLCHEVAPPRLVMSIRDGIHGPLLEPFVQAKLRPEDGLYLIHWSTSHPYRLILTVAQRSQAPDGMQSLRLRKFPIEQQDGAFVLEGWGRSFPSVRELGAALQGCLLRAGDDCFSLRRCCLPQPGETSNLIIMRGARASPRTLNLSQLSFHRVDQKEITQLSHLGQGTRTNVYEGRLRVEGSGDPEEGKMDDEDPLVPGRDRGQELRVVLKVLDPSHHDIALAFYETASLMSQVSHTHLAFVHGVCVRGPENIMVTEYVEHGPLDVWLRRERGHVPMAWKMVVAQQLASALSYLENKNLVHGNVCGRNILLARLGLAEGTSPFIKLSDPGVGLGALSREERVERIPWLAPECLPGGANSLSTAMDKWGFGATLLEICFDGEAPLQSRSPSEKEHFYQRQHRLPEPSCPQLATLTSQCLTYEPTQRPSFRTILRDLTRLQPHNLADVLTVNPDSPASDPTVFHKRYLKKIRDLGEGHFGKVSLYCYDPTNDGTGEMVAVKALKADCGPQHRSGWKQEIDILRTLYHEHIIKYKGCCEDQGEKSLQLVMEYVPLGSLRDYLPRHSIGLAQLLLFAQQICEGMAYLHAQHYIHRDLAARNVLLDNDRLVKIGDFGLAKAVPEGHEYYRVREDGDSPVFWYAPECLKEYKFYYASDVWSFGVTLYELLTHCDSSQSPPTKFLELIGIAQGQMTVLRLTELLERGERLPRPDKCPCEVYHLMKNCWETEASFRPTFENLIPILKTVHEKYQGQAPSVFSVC

| SMILES | TYK2 Degradation (0.5 μM) [%] | TYK2 Degradation (5 μM) [%] | TYK2 Degradation (MOLT-4, 5 μM) (5 μM) | TYK2 Degradation (MOLT-4, 0.5 μM) |
| --- | --- | --- | --- | --- |
| CNC(=O)c1nnc(NC(=O)CNC(=O)CCCC(=O)N[C@H](C(=O)N2C[C@H](O)C[C@H]2C(=O)NCc2ccc(-c3scnc3C)cc2)C(C)(C)C)cc1Nc1cccc(-c2ncn(C)n2)c1OC [CPD-035, N^1—((S)-1-((2S,4R)-4-Hydroxy-2-((4-(4-methylthiazol-5-yl)benzyl)carbamoyl)pyrrolidin-1-yl)-3,3-dimethyl-1-oxobutan-2-yl)-N^5-(2-((5-((2-methoxy-3-(1-methyl-1H-1,2,4-triazol-3-yl)phenyl)amino)-6-(methylcarbamoyl)pyridazin-3-yl)amino)-2-oxoethyl)glutaramide] | ≤20 | ≤20 |  |  |
| CNC(=O)c1nnc(NC(=O)CNC(=O)COCCOCC(=O)N[C@H](C(=O)N2C[C@H](O)C[C@H]2C(=O)NCc2ccc(-c3scnc3C)cc2)C(C)(C)C)cc1Nc1cccc(-c2ncn(C)n2)c1OC [CPD-027, 6-((S)-13-((2S,4R)-4-Hydroxy-2-((4-(4-methylthiazol-5-yl)benzyl)carbamoyl)pyrrolidine-1-carbonyl)-14,14-dimethyl-4,11-dioxo-6,9-dioxa-3,12-diazapentadecanamido)-4-((2-methoxy-3-(1-methyl-1H-1,2,4-triazol-3-yl)phenyl)amino)-N-methylpyridazine-3-carboxamide] | ≤20 | ≤20 |  |  |
| CNC(=O)c1nnc(NC(=O)CNC(=O)CCCNc2cccc3c2C(=O)N(C2CCC(=O)NC2=O)C3=O)cc1Nc1cccc(-c2ncn(C)n2)c1OC (centres unmarked) [CPD-044, 6-(2-(4-((2-(2,6-Dioxopiperidin-3-yl)-1,3-dioxoisoindolin-4-yl)amino)butanamido)acetamido)-4-((2-methoxy-3-(1-methyl-1H-1,2,4-triazol-3-yl)phenyl)amino)-N-methylpyridazine-3-carboxamide] | ≤20 | ≤20 |  |  |
| CNC(=O)c1nnc(NC(=O)CNC(=O)CCCCCCCCCC(=O)N[C@H](C(=O)N2C[C@H](O)C[C@H]2C(=O)NCc2ccc(-c3scnc3C)cc2)C(C)(C)C)cc1Nc1cccc(-c2ncn(C)n2)c1OC [CPD-041, N^1—((S)-1-((2S,4R)-4-Hydroxy-2-((4-(4-methylthiazol-5-yl)benzyl)carbamoyl)pyrrolidin-1-yl)-3,3-dimethyl-1-oxobutan-2-yl)-N^11-(2-((5-((2-methoxy-3-(1-methyl-1H-1,2,4-triazol-3-yl)phenyl)amino)-6-(methylcarbamoyl)pyridazin-3-yl)amino)-2-oxoethyl)undecanediamide] | 50 | 30 |  |  |
| CNC(=O)c1nnc(NC(=O)C2CC2)cc1Nc1cccc(-c2ncn(CCNC(=O)CCOCCOCCOCCOCCNc3ccc4c(c3)C(=O)N(C3CCC(=O)NC3=O)C4=O)n2)c1OC (centres unmarked) [CPD-021, 6-(Cyclopropanecarboxamido)-4-((3-(1-(1-((2-(2,6-dioxopiperidin-3-yl)-1,3-dioxoisoindolin-5-yl)amino)-15-oxo-3,6,9,12-tetraoxa-16-azaoctadecan-18-yl)-1H-1,2,4-triazol-3-yl)-2-methoxyphenyl)amino)-N-methylpyridazine-3-carboxamide] | ≤20 | ≤20 |  |  |
| CNC(=O)c1nnc(NC(=O)CNC(=O)CCCCCNc2cccc3c2C(=O)N(C2CCC(=O)NC2=O)C3=O)cc1Nc1cccc(-c2ncn(C)n2)c1OC (centres unmarked) [CPD-046, 6-(2-(6-((2-(2,6-Dioxopiperidin-3-yl)-1,3-dioxoisoindolin-4-yl)amino)hexanamido)acetamido)-4-((2-methoxy-3-(1-methyl-1H-1,2,4-triazol-3-yl)phenyl)amino)-N-methylpyridazine-3-carboxamide] | ≤20 | ≤20 |  |  |
| CNC(=O)c1nnc(NC(=O)CNC(=O)CCCNC(=O)C[C@H](NC(=O)[C@@H]2C[C@@H](O)CN2C(=O)[C@@H](NC(=O)C2(F)CC2)C(C)(C)C)c2ccc(-c3scnc3C)cc2)cc1Nc1cccc(-c2ncn(C)n2)c1OC [CPD-088, 6-(2-(4-((S)-3-((2S,4R)-1-((S)-2-(1-Fluorocyclopropane-1-carboxamido)-3,3-dimethylbutanoyl)-4-hydroxypyrrolidine-2-carboxamido)-3-(4-(4-methylthiazol-5-yl)phenyl)propanamido)butanamido)acetamido)-4-((2-methoxy-3-(1-methyl-1H-1,2,4-triazol-3-yl)phenyl)amino)-N-methylpyridazine-3-carboxamide] |  |  |  | C (C: ≤20% TYK2 degradation) |
| CNC(=O)c1nnc(NC(=O)CNC(=O)CCNc2cccc3c2C(=O)N(C2CCC(=O)NC2=O)C3=O)cc1Nc1cccc(-c2ncn(C)n2)c1OC (centres unmarked) [CPD-043, 6-(2-(3-((2-(2,6-Dioxopiperidin-3-yl)-1,3-dioxoisoindolin-4-yl)amino)propanamido)acetamido)-4-((2-methoxy-3-(1-methyl-1H-1,2,4-triazol-3-yl)phenyl)amino)-N-methylpyridazine-3-carboxamide] | ≤20 | ≤20 |  |  |
| CNC(=O)c1nnc(NC(=O)CNC(=O)CCOCCOCCOCCNc2cccc3c2C(=O)N(C2CCC(=O)NC2=O)C3=O)cc1Nc1cccc(-c2ncn(C)n2)c1OC (centres unmarked) [CPD-051, 6-(1-((2-(2,6-Dioxopiperidin-3-yl)-1,3-dioxoisoindolin-4-yl)amino)-12-oxo-3,6,9-trioxa-13-azapentadecan-15-amido)-4-((2-methoxy-3-(1-methyl-1H-1,2,4-triazol-3-yl)phenyl)amino)-N-methylpyridazine-3-carboxamide] | ≤20 | ≤20 |  |  |

Second part, led by results:

| TYK2 Degradation (0.5 μM) [%] | TYK2 Degradation (5 μM) [%] | TYK2 Degradation (MOLT-4, 5 μM) (5 μM) | SMILES | TYK2 Degradation (MOLT-4, 0.5 μM) |
| --- | --- | --- | --- | --- |
| ≤20 | ≤20 |  | CNC(=O)c1nnc(NC(=O)C2CC2)cc1Nc1cccc(-c2ncn(CCNC(=O)CCOCCOCCOCCOCCC(=O)N[C@H](C(=O)N3C[C@H](O)C[C@H]3C(=O)NCc3ccc(-c4scnc4C)cc3)C(C)(C)C)n2)c1OC [CPD-072, N^1-(2-(3-(3-((6-(Cyclopropanecarboxamido)-3-(methylcarbamoyl)pyridazin-4-yl)amino)-2-methoxyphenyl)-1H-1,2,4-triazol-1-yl)ethyl)-N^16-((S)-1-((2S,4R)-4-hydroxy-2-((4-(4-methylthiazol-5-yl)benzyl)carbamoyl)pyrrolidin-1-yl)-3,3-dimethyl-1-oxobutan-2-yl)-4,7,10,13-tetraoxahexadecanediamide] |  |
| ≤20 | ≤20 |  | CNC(=O)c1nnc(NC(=O)C2CC2)cc1Nc1cccc(-c2ncn(CCNC(=O)CCOCCOCCOCCOCCOCCC(=O)N[C@H](C(=O)N3C[C@H](O)C[C@H]3C(=O)NCc3ccc(-c4scnc4C)cc3)C(C)(C)C)n2)c1OC [CPD-074, N^1-(2-(3-(3-((6-(Cyclopropanecarboxamido)-3-(methylcarbamoyl)pyridazin-4-yl)amino)-2-methoxyphenyl)-1H-1,2,4-triazol-1-yl)ethyl)-N^19-((S)-1-((2S,4R)-4-hydroxy-2-((4-(4-methylthiazol-5-yl)benzyl)carbamoyl)pyrrolidin-1-yl)-3,3-dimethyl-1-oxobutan-2-yl)-4,7,10,13,16-pentaoxanonadecanediamide] |  |
| ≤20 | 30 |  | CNC(=O)c1nnc(NC(=O)CNC(=O)CCOCCOCCOCCNc2ccc3c(c2)C(=O)N(C2CCC(=O)NC2=O)C3=O)cc1Nc1cccc(-c2ncn(C)n2)c1OC (centres unmarked) [CPD-063, 6-(1-((2-(2,6-Dioxopiperidin-3-yl)-1,3-dioxoisoindolin-5-yl)amino)-12-oxo-3,6,9-trioxa-13-azapentadecan-15-amido)-4-((2-methoxy-3-(1-methyl-1H-1,2,4-triazol-3-yl)phenyl)amino)-N-methylpyridazine-3-carboxamide] |  |
| ≤20 | ≤20 |  | CNC(=O)c1nnc(NC(=O)CNC(=O)CCNc2ccc3c(c2)C(=O)N(C2CCC(=O)NC2=O)C3=O)cc1Nc1cccc(-c2ncn(C)n2)c1OC (centres unmarked) [CPD-055, 6-(2-(3-((2-(2,6-Dioxopiperidin-3-yl)-1,3-dioxoisoindolin-5-yl)amino)propanamido)acetamido)-4-((2-methoxy-3-(1-methyl-1H-1,2,4-triazol-3-yl)phenyl)amino)-N-methylpyridazine-3-carboxamide] |  |
| ≤20 | ≤20 |  | CNC(=O)c1nnc(NC(=O)C2CC2)cc1Nc1cccc(-c2ncn(CCNC(=O)CCCCC(=O)N[C@H](C(=O)N3C[C@H](O)C[C@H]3C(=O)NCc3ccc(-c4scnc4C)cc3)C(C)(C)C)n2)c1OC [CPD-077, N^1-(2-(3-(3-((6-(Cyclopropanecarboxamido)-3-(methylcarbamoyl)pyridazin-4-yl)amino)-2-methoxyphenyl)-1H-1,2,4-triazol-1-yl)ethyl)-N^6-((S)-1-((2S,4R)-4-hydroxy-2-((4-(4-methylthiazol-5-yl)benzyl)carbamoyl)pyrrolidin-1-yl)-3,3-dimethyl-1-oxobutan-2-yl)adipamide] |  |
|  |  | A (A: ≥60% TYK2 degradation) | CNC(=O)c1nnc(NC(=O)CNC(=O)CCCCCCC(=O)N[C@H](C(=O)N2C[C@H](O)C[C@H]2C(=O)N[C@@H](C)c2ccc(-c3scnc3C)cc2)C(C)(C)C)cc1Nc1cccc(-c2ncn(C)n2)c1OC [CPD-083, N^1-((S)-1-((2S,4R)-4-Hydroxy-2-(((S)-1-(4-(4-methylthiazol-5-yl)phenyl)ethyl)carbamoyl)pyrrolidin-1-yl)-3,3-dimethyl-1-oxobutan-2-yl)-N^8-(2-((5-((2-methoxy-3-(1-methyl-1H-1,2,4-triazol-3-yl)phenyl)amino)-6-(methylcarbamoyl)pyridazin-3-yl)amino)-2-oxoethyl)octanediamide] | B (B: <60% TYK2 degradation, and >20% TYK2 degradation) |
